{
  "source": "patent US9480677B2",
  "about": "“Enantiomers of spiro-oxindole compounds and their uses as therapeutic agents” (Xenon Pharmaceuticals Inc., priority 2009, dated 2016)",
  "key": {"[1]": {"system": "local skin toxicity/irritancy"}, "[2]": {"assay": "Solubility in pharmaceutically acceptable excipients", "assay_type": "physicochemical", "description": "Thus, the (S)-enantiomer can be formulated in a fewer number of dosage units than the racemate. This property facilitates dosing patients at a higher level if needed to achieve efficacy."}, "[3]": {"biological_target": "hNav1.7 (Homo sapiens, UniProt Q15858)", "sequence (Q15858 whole entry)": "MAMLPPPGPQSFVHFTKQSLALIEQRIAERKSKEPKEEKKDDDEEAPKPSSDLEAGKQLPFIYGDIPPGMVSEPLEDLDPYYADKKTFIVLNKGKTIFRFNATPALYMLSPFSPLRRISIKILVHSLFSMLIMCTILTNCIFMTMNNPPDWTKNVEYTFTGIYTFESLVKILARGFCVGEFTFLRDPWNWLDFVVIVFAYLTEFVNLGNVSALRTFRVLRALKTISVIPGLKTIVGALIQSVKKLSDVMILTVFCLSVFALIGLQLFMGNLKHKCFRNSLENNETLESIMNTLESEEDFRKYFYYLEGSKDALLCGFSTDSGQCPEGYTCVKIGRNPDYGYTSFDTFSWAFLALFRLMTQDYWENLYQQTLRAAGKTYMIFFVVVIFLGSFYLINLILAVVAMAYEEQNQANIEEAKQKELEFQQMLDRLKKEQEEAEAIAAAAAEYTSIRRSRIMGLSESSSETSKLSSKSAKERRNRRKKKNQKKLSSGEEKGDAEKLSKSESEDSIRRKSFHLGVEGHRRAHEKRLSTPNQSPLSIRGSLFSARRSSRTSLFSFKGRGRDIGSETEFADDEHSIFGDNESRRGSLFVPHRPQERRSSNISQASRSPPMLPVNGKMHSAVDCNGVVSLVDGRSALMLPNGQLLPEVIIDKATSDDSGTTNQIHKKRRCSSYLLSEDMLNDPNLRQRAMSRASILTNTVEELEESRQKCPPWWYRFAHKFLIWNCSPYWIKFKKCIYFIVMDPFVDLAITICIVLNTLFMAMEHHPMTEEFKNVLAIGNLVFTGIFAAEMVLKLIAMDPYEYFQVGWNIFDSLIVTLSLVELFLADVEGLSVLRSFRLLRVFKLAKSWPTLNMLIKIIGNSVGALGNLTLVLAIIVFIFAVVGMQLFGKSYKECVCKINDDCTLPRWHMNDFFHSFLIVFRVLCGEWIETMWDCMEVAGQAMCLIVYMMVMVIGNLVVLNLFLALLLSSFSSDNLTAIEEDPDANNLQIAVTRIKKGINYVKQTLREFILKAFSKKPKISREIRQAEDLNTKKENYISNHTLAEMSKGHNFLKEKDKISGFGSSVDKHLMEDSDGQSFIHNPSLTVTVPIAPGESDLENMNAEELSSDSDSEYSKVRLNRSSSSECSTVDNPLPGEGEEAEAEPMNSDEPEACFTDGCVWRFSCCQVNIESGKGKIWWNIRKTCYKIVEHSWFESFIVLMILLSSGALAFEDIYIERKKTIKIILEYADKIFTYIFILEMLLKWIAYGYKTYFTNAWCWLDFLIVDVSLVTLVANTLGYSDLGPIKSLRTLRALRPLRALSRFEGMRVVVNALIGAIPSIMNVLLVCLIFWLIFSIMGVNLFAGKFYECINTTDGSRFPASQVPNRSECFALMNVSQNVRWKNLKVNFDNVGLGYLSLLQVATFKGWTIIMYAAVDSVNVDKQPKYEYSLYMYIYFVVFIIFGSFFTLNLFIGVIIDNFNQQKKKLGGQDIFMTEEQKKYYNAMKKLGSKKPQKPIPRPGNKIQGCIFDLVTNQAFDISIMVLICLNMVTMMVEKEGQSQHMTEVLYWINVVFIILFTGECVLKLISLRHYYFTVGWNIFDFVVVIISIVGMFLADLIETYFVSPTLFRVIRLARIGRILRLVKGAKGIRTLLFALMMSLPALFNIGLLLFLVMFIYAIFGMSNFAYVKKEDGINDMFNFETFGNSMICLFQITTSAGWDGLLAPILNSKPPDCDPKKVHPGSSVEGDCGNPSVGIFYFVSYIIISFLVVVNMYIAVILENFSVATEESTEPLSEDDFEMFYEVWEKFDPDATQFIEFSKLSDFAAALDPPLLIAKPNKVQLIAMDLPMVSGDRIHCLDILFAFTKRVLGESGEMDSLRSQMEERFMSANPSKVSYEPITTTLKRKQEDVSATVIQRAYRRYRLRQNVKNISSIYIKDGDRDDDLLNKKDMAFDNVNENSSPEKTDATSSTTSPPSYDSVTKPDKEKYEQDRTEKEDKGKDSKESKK", "assay": "Electrophysiological assay, whole cell voltage clamp", "assay_type": "cell-based", "set-up": "expressed in transfected cells; host or cells: HEK293", "method": "HEK293 Cells expressing hNav1.7 were cultured in DMEM growth media (Gibco) with 0.5 mg/mL G418, +/−1% PSG, and 10% heat-inactivated fetal bovine serum at 37° C. and 5% CO2. For electrophysiological recordings, cells were plated on 10 mm dishes.\nWhole cell recordings were examined by established methods of whole cell voltage clamp (Bean et al., op. cit.) using an Axopatch 200B amplifier and Clampex software (Axon Instruments, Union City, Calif.). All experiments were performed at ambient temperature. Electrodes were fire-polished to resistances of 2-4 Mohms Voltage errors and capacitance artifacts were minimized by series resistance compensation and capacitance compensation, respectively. Data were acquired at 40 kHz and filtered at 5 kHz. The external (bath) solution consisted of: NaCl (140 mM), KCl (5 mM), CaCl2 (2 mM), MgCl2 (1 mM), HEPES (10 mM) at pH 7.4. The internal (pipette) solution consisted of (in mM): NaCl (5), CaCl2 (0.1), MgCl2 (2), CsCl (10), CsF (120), HEPES (10), EGTA (10), at pH 7.2.\nTo estimate the steady-state affinity of compounds for the resting and inactivated state of the channel (Kr and Ki, respectively), 12.5 ms test pulses to depolarizing voltages from −60 to +90 m V from a holding potential of −120 m V was used to construct current-voltage relationships (1-V curves). A voltage near the peak of the IV-curve (−30 to 0 m V) was used as the test pulse throughout the remainder of the experiment. Steady-state inactivation (availability) curves were then constructed by measuring the current activated during a 8.75 ms test pulse following 1 second conditioning pulses to potentials ranging from −120 to −10 mV.\nThe steady-state voltage-dependence of binding of a compound to a voltage-gated sodium channel was determined by measuring the blockage of the ionic current at two holding potentials. Binding to rested-state channels was determined by using a holding potential of −120 mV, so that maximal availability was achieved. Binding to inactivated-state channels was evaluated at a holding potential such that only about 10% of the channels were available to open. The membrane potential was held at this voltage for at least 10 seconds so that drug binding could equilibrate.\nThe apparent dissociation constant at each voltage was calculated with the equation:\n[formula] where Kd is the dissociation constant (either Kr or Ki), and [Drug] is the concentration of the test compound."}, "[4]": {"assay": "Phase 1 clinical trial of topical ointment: systemic pharmacokinetics", "assay_type": "in vivo, human"}, "[5]": {"system": "chronic constriction injury neuropathic pain", "assay": "Neuropathic pain model; chronic constriction injury (CCI)", "assay_type": "in vivo", "conditions": "topical ointment containing 2% (w/v)"}},
  "data": [
    {"smiles": "O=C1N(Cc2ccc(C(F)(F)F)o2)c2ccccc2[C@]12COc1cc3c(cc12)OCO3", "note": "[(I-S), (S)-1′-{[5-(trifluoromethyl)furan-2-yl]methyl}spiro[furo[2,3-f][1,3]benzodioxole-7,3′-indol]-2′(1′H)-one]", "values": [
      {"measurement": "Serious Adverse Events (SAEs) or deaths", "setting": "[1]; 4% and 8% (w/w) ointment daily for 21 days, healthy subjects", "value": "No Serious Adverse Events (SAEs) or deaths were reported"},
      {"measurement": "cumulative irritation scores versus placebo ointments and negative control (0.9% saline)", "setting": "[1]; human, in vivo", "value": "No difference was observed"},
      {"measurement": "electrocardiography: pulse rate, quiescent resting state, QTc intervals", "setting": "[1]; human, in vivo", "value": "did not demonstrate clinically significant changes"},
      {"measurement": "severity of Adverse Events (AEs)", "setting": "[1]; human, in vivo", "value": "mild or moderate in severity"},
      {"measurement": "vital signs, physical examinations, laboratory assessments", "setting": "[1]; human, in vivo", "value": "no clinically significant changes from baseline"},
      {"measurement": "skin irritation score, maximum", "setting": "[1]; human, in vivo, 21 days", "value": "≤ 3"},
      {"measurement": "solubility", "setting": "[2]; Ethanol, organic solvent or mixture", "value": 36.4, "unit": "mg/mL"},
      {"measurement": "solubility", "setting": "[2]; PEG 400, organic solvent or mixture", "value": "> 55", "unit": "mg/mL"},
      {"measurement": "solubility", "setting": "[2]; Propylene glycol, organic solvent or mixture", "value": 9.8, "unit": "mg/mL"},
      {"measurement": "solubility", "setting": "[2]; oil or lipid, Capryol ® 90", "value": 96, "unit": "mg/mL"},
      {"measurement": "solubility", "setting": "[2]; oil or lipid, Labrasol ®", "value": 231, "unit": "mg/mL"},
      {"measurement": "solubility", "setting": "[2]; oil or lipid, Labrasol ®/Capryol ® 90 60/40", "value": 191, "unit": "mg/mL"},
      {"measurement": "solubility", "setting": "[2]; organic solvent or mixture, Labrasol ®/PEG 400 60/40", "value": 182, "unit": "mg/mL"},
      {"measurement": "solubility", "setting": "[2]; organic solvent or mixture, Labrasol ®/Transcutol ® 60/40", "value": 186, "unit": "mg/mL"},
      {"measurement": "solubility", "setting": "[2]; organic solvent or mixture, Tween ® 80", "value": "> 123", "unit": "mg/mL"},
      {"measurement": "potency in binding to the inactivated-state of hNav1.7 relative to the (R)-enantiomer", "setting": "[3]; (S)- versus (R)-enantiomer", "value": "about 5 times"},
      {"measurement": "Ki", "setting": "[3]; affinity for the inactivated state of hNav1.7", "value": 161, "unit": "nM"},
      {"measurement": "Kd", "setting": "[3]; affinity for the rested/closed state of hNav1.7, holding potential −120 mV, read-out: Kr", "value": "> 10000", "unit": "nM"},
      {"measurement": "concentrations in plasma", "setting": "[4]; below LLOQ in most samples (489 out of 546=~90%)", "value": "< 0.1", "unit": "ng/mL"},
      {"measurement": "concentration at 22 day", "setting": "[4]; human, plasma, Day 22, read-out: highest level observed in plasma in one subject during the dosing period", "value": 0.994, "unit": "ng/mL"},
      {"measurement": "reversal of pain responses, percent increase from baseline", "setting": "[5]", "value": "reversed pain responses"}
    ]}
  ]
}
